First: CC(C)(C)OC(=O)NC(CC(=O)NCCC(=O)OCc1ccccc1)C(=O)NCCC(=O)OCc1ccccc1 (stereo unspecified)
Second: CC(C)(C)OC(=O)NNCc1ccc(-c2ccccc2)cc1
The melting point of the first is higher: 109 to 110 °C for the first, 84 to 85 °C for the second.

First: COC(=O)CN1C(=O)C(C(C)C)Sc2ccccc21 (stereo unspecified)
Second: CCOC(=O)c1c(Nc2ccccc2SC)n[nH]c1C
The melting point of the first is lower: 81 to 82 °C for the first, 135 to 158 °C for the second.

First: Cc1cccc2c1N(CC(=O)N1CC3CCC(CC3)C1)C(=O)C(NC(=O)Nc1cccc(CO)c1)N=C2c1ccccc1F (stereo unspecified)
Second: O=C1CCC(N2Cc3c(OCc4cccc(CN5CCC(c6ccc(F)cc6F)CC5)c4)cccc3C2=O)C(=O)N1 (stereo unspecified)
The melting point of the first is lower: 188 to 202 °C for the first, 211 to 213 °C for the second.

Compared with `COC(=O)c1cccc(-c2nnc(-c3ccccc3N)cc2CCCO)c1`, `CCc1cc(C(=O)c2ccccc2Cl)c(-n2c(C)nnc2CNC(=O)c2ccccc2)s1` is higher in melting point: 141 °C for the first, 160 to 161 °C for the second.

First: COc1cc(OC)c(-c2cc3ccccc3[nH]2)cc1C=CC(=O)c1ccc(S(=O)(=O)NCCCn2ccnc2)cc1
Second: CCCCc1nn(-c2ccccc2C(F)(F)F)c(=O)n1Cc1ccc(-c2ccccc2S(=O)(=O)NC(=O)c2ccccc2)cc1
The melting point of the first is higher: 197 to 200 °C for the first, 91 to 93 °C for the second.

First: CC1(C)CCC(C)(C)c2cc(-c3cnn(-c4ccc(C(=O)O)cc4)c3)ccc21
Second: O=C(O)COc1ccc(-c2nn(-c3ccccc3)c3ncccc23)cc1
The melting point of the first is higher: 229 to 232 °C for the first, 220 to 222 °C for the second.

First: CCOc1cc([C@@H](CCN(O)C=O)N2C(=O)c3cccc(NC(C)=O)c3C2=O)ccc1OC
Second: COC(=O)CC(NC(=O)c1cccc(OC)c1)c1ccc(OC)c(OC)c1 (stereo unspecified)
The melting point of the first is lower: 96 to 98 °C for the first, 124 to 125 °C for the second.

First: Fc1ccc(Cn2c(NC3CCN(CCNCCc4c[nH]c5ccccc45)CC3)nc3ccccc32)cc1
Second: O=C1N=c2cccc(OCCN3CCC(Cc4ccccc4)CC3)c2=NC1=O
The melting point of the first is lower: 170 °C for the first, 244 to 245 °C for the second.

First: CO[C@]1(c2ncc(S(=O)(=O)c3ccc(/C(C)=N/O)cc3)s2)CCO[C@@H]1C (racemic)
Second: CCCC1CC(=O)C(C(=O)NS(=O)(=O)c2ccc(C)cc2)C(=O)C1 (stereo unspecified)
The melting point of the first is higher: 139 to 141 °C for the first, 132 to 134 °C for the second.

First: CN1CC(CCN2CCN(c3ccccn3)CC2)OC1=O (stereo unspecified)
Second: COC[C@@H]1CN(c2nsc3cc(O)ccc23)C(=O)O1
The melting point of the first is lower: 108 to 109 °C for the first, 142 to 143 °C for the second.

First: CCCCc1nc(Cl)c(C(=O)O)n1Cc1ccc2oc(-c3ccccc3-c3nnn[nH]3)c(OC)c2c1
Second: CN(Cc1ccc2c(Br)c(OCC#N)ccc2c1)C(=O)c1oc2ccccc2c1CCc1ccccc1
The melting point of the first is higher: 140 to 144 °C for the first, 51 to 55 °C for the second.

First: CC(=O)Oc1ccccc1C(=O)N1CC(O)C[C@H]1C(=O)O (stereo partly specified)
Second: NC(=O)c1c(F)cccc1C(=O)O
The melting point of the first is higher: 175 °C for the first, 129 to 132 °C for the second.

Compared with `CCN(c1nc(C)cc(C)n1)c1c(O)cc(OC)cc1Br`, `COC(=O)c1c(N)ncn1-c1c(C)cccc1C` is lower in melting point: 157 to 160 °C for the first, 154 to 156 °C for the second.

First: CCOC(=O)C1(C)C(=O)Nc2cc(NC(=O)c3ccncc3)c([N+](=O)[O-])cc21 (stereo unspecified)
Second: CCOC(=O)C1=C(C#N)NC(C)=C(C(=O)OCCOCc2ccccc2)C1c1ccccc1[N+](=O)[O-] (stereo unspecified)
The melting point of the first is higher: 217 to 219 °C for the first, 139 to 140 °C for the second.

First: CCOP(=O)(CCc1cc(OCc2ccc(OCc3nc(-c4ccco4)oc3C)c(OC)c2)nn1-c1ccccc1)OCC
Second: S=C(Nc1ccccc1)Nc1ncccc1OCc1ccc(Cl)cc1
The melting point of the first is lower: 76 to 77 °C for the first, 162 to 164 °C for the second.

Compared with `CCCCS(=O)(=O)C(c1ccc(Cl)cc1)c1ccc(Cl)cc1`, `CCCCCCCOc1ccc(C(=O)Nc2ccccc2O)cc1` is higher in melting point: 104 to 106 °C for the first, 131 to 133 °C for the second.

First: C[C@H]1[C@H](O)CN1c1c(F)cc2c(=O)c(C(=O)O)cn(C3CC3)c2c1F (relative stereo)
Second: O=C(O)c1cn(C2CC2)c2c(F)c(N3CC4CCC3CN4)c(F)cc2c1=O (stereo unspecified)
The melting point of the first is lower: 215 to 218 °C for the first, 275 to 280 °C for the second.

Compared with `Cn1c(-c2ccc(C(N)=O)cc2)cc2c(N3CCCC3)nc(N3CCCC3)nc21`, `CCN(CC)CC1CCCCN1CC(=O)N1c2cc(Cl)ccc2C(=O)Nc2cccnc21` (stereo unspecified) is lower in melting point: 175 to 180 °C for the first, 168 to 169 °C for the second.

Compared with `COc1cc2c(cc1OC)CN(CC(O)COc1ccc(N)cc1)CC2` (stereo unspecified), `COc1ccc(-c2cccc(-c3ccc(OC)c(F)c3)n2)cc1F` is higher in melting point: 106 °C for the first, 108 °C for the second.

Compared with `OC(CNCCNc1ccccc1Cl)COc1cccc2[nH]ncc12` (stereo unspecified), `O=S(=O)(Nc1cccc(OCc2cccc(-c3ccccc3)n2)c1)C(F)(F)F` is lower in melting point: 129 to 130 °C for the first, 115 to 117 °C for the second.

Compared with `CN1C(=O)C(C2=COc3ccccc3O2)=C(c2c[nH]c3cc(F)ccc23)C1=O`, `Cc1c[nH]c2ccc(-c3nn(C(C)c4oc5ccccc5c(=O)c4-c4cccc(F)c4)c4ncnc(N)c34)cc12` (stereo unspecified) is lower in melting point: 214 °C for the first, 171 to 173 °C for the second.

First: Cc1c(C(=O)O)ccc2c1C(Cl)C(Cl)CS2(=O)=O (stereo unspecified)
Second: CCOC(=O)N1CCOC(CNC(=O)c2cc(Cl)c(N)cc2OC)C1 (stereo unspecified)
The melting point of the first is higher: 236 to 244 °C for the first, 140 to 151 °C for the second.

Compared with `CC1CC2=CC(=O)CCC2C2C(F)CC3(C)C(=O)CCC3C12` (stereo unspecified), `CC(C)c1c(C=CC2CC(O)CC(O)O2)n(C2CCCCC2)c(=O)c2ccccc12` (mixture of isomers) is higher in melting point: 84.8 °C for the first, 141 to 142 °C for the second.

Compared with `CC(C)OP(=O)(OC(C)C)C(Nc1ccccn1)P(=O)(OC(C)C)OC(C)C`, `CN(C)C(=O)NS(=O)(=O)C=Cc1ccccc1` is higher in melting point: 98 to 100 °C for the first, 160 to 162 °C for the second.

Compared with `C=CCc1cc(Cc2cnc(N)nc2N)c2cccnc2c1OCCOC`, `CC(=NOCCOc1ccc(CC2SC(=O)NC2=O)cc1)c1ccc(-c2ccccc2)cn1` (stereo unspecified) is lower in melting point: 196 to 200 °C for the first, 136 to 138 °C for the second.

Compared with `C=CC(C)(C)CC(=O)C(=O)Nc1ccc2c(c1)C(=O)OC2`, `CC(C)(C)OC(=O)N1CCc2c(C=O)c3ccccc3n2CC1` is higher in melting point: 103 to 104 °C for the first, 167 to 168 °C for the second.

Compared with `CC(=O)c1cn(Cc2ccccc2)c(=O)n(Cc2ccccc2)c1=O`, `Cc1onc(-c2ccc(Br)o2)c1-c1ccccc1` is higher in melting point: 92 to 93 °C for the first, 93 to 96 °C for the second.

First: [N-]=[N+]=NC1CC(n2cnc3c(NC4CC4c4ccccc4)nc(N)nc32)OC1CO (stereo unspecified)
Second: CN(C)Cc1ccc(C=CC(=O)N2CCc3c([nH]c4ccccc34)C2c2ccc3c(c2)CCO3)cn1 (stereo unspecified)
The melting point of the first is lower: 65 to 70 °C for the first, 163 °C for the second.

Compared with `Nc1nc(O)nc(Cl)n1`, `CCC(=O)N(C)c1nc(Cl)c([N+](=O)[O-])s1` is lower in melting point: 300 °C for the first, 132 to 133 °C for the second.

First: COc1ccccc1NC(=O)Nc1nc(Oc2ccc3ccccc3c2)nc(N(CCC(=O)O)Cc2ccc(C(F)(F)F)cc2C(F)(F)F)n1
Second: Nc1ccc(C(=O)N2CCOCC2)cc1OCc1ccc(-c2ccccc2)c(-c2nnnn2C(c2ccccc2)(c2ccccc2)c2ccccc2)c1
The melting point of the first is higher: 192 °C for the first, 95 to 105 °C for the second.

First: CC1(C)C(C=C(Cl)Cl)C1(C#N)C(=O)O (stereo unspecified)
Second: CCc1nc(C)c(/C=C(\NC(=O)c2ccc(C(=O)NCc3cccc(O)c3)cc2Cl)C(=O)O)s1
The melting point of the first is lower: 128 to 132 °C for the first, greater than 200 °C for the second.

First: CNC(=O)c1cc(-c2ccc(OC)cc2)nn(CC(=O)NCCO)c1=O
Second: O=C(NCCBr)C1=C(C(=O)Nc2cc(OC3CCCC3)c(Cl)cc2F)CCCC1
The melting point of the first is higher: 240 to 241 °C for the first, 140 to 142 °C for the second.

First: C=Cn1ccnc1C=O
Second: O=c1oc2cc(O)c(O)cc2c(O)c1-c1coc2c1c(=O)oc1cc(O)c(O)cc12
The melting point of the first is lower: 48 to 51 °C for the first, greater than 300 °C for the second.

— a melting point compilation (Tetko et al.; mined from patent text by program, amines drawn as free bases though some values may be those of a salt)
